The record followed here is doi:10.1101/2025.02.18.638599v1 (biorxiv, 2025).

The subject of experiment [1] is E. coli BW25113. The experiment in a line: microbe, parasite or virus in culture. The conditions noted are these: Escherichia coli, BW25113, 24 h, read-out: MIC, E. coli BW25113.
Another experiment concerns E. coli JW5503. The experiment in a line: microbe, parasite or virus in culture. The conditions noted are these: Escherichia coli, JW5503, 24 h, read-out: MIC, E. coli JW5503.
The next experiment addresses T1, AcrB (Escherichia coli, UniProt P31224).
T1 sequence (P31224 1-1049): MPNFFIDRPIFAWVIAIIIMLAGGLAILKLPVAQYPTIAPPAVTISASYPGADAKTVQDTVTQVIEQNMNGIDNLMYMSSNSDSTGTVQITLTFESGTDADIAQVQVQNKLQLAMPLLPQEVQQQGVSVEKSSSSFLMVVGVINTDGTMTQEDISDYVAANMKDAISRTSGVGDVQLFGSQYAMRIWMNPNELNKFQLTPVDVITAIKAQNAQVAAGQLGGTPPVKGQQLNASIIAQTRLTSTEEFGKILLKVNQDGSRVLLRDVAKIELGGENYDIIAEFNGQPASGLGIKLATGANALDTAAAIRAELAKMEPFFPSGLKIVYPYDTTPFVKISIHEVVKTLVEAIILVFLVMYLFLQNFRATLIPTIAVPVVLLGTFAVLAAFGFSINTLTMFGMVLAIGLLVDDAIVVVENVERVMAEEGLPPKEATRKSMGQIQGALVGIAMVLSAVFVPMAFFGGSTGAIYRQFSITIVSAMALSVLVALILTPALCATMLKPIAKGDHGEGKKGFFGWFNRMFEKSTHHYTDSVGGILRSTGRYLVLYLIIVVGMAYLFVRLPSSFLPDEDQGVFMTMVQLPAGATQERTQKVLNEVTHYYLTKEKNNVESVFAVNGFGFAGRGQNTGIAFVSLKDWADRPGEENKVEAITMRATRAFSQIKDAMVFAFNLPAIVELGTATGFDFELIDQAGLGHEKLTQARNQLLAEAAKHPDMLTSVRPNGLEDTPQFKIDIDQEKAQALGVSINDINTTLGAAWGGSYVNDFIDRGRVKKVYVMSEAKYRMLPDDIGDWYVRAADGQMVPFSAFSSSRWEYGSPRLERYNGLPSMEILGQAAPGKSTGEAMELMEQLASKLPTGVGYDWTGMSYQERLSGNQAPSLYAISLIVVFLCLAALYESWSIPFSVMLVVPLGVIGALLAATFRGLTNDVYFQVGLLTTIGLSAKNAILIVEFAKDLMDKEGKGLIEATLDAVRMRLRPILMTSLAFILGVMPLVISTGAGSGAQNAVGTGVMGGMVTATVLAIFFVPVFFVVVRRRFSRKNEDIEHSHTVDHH
The experiment in a line: label-free microscale thermophoresis. The format is binding. In general terms: MST reads how a fluorescent partner responds to local heating, with and without ligand.

Another experiment concerns the target T2, TolC (Escherichia coli, UniProt P02930).
T2 sequence (P02930 23-493): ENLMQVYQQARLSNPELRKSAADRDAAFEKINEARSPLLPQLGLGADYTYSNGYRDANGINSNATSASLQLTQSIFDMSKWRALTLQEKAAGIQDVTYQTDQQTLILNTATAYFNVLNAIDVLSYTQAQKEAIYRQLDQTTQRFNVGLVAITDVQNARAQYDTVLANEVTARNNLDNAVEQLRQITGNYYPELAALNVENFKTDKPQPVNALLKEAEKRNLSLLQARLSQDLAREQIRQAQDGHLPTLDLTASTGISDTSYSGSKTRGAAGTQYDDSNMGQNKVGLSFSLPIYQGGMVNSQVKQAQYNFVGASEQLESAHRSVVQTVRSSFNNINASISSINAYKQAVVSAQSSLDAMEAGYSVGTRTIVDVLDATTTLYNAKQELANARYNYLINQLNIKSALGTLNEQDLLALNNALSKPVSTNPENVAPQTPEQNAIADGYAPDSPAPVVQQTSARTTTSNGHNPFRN
The experiment can be described thus: label-free microscale thermophoresis. The format is binding.

Experiment [2] has as its system E. coli BW25113. More on the design: species or system Escherichia coli. The settings on record: compound alone; 24 h; inhibitor.

A word on the Kd: it is the free concentration of one partner at which half of the binding sites on the other are occupied at equilibrium, for simple one-to-one binding. Read a low Kd as a tighter complex. As for `CNC(=O)c1ccccc1Nc1nc(Nc2ccc3c(c2OC)CCC[C@H](N2CCN(CCO)CC2)C3)ncc1Cl` [CEP-37440], the MIC with E. coli BW25113 [1] was over 125 µM; with E. coli JW5503, over 75 µM. The Kd on AcrB is 198 µM; at TolC, 282 µM.

As for `COc1c(N)ccc2c1CCCC(N1CCN(CCO)CC1)C2` (centres unmarked) [LP-115], the “MIC, E. coli BW25113” value against E. coli BW25113 [2] is listed as over 125 µM.
